# Measurements reported in patent publication US20230174556A1, “COMPOUNDS AS PROTEIN KINASE INHIBITORS” (Fochon Biosciences, Ltd., priority 2020, published 2023).
# System: OCI-LY10 (PI3Kδ dependent) cells
# Experiment: OCI-LY10 cell proliferation assay (MTS)
# Format: cell-based
# Conditions: Homo sapiens, OCI-Ly10, 72 h, inhibition of OCI-LY10 cells proliferation, 72 h incubation, MTS readout at 490 nm
# Description: MTS testing kit was purchased from Promega (Madison, WI, USA). The RPMI-1640, Fetal bovine serum and Penicillin-Streptomycin were purchased from BI (Biological Industries, Beit Haemek, Israel). Dimethyl sulfoxide (DMSO) was purchased from Sigma (St. Louis., MO, USA). OCI-LY10 cells were cultured in RPMI1640 supplemented with Penicillin-Streptomycin and 10% FBS.
# To investigate whether a compound is able to inhibit the activity of PI3Kδ in cells, a mechanism-based assay using OCI-LY10 (PI3Kδ dependent) cells was developed. In this assay, inhibition of PI3Kδ was detected by the inhibition of OCI-LY10 cells proliferation. Cells were plated into 96-well plates at a density of 10000 cells/well. Plates were incubated at 37° C., with 5 % CO2 for 4 h. Compounds were serially diluted and added to the plates with the final compound concentrations as 10000, 3333.3, 1111.1, […], 123.5, 41.2, 13.7, 4.6 and 1.5 nM. Plates were incubated at 37° C., with 5 % CO2 for 72 h. 20 µl MTS was added into each well and the plates were incubated at 37° C., with 5 % CO2 for exactly 2 h. The absorbance was measured by a microplate reader at 490 nm. IC50 was calculated using GraphPad Prism 5.0 software.
row,Structure (SMILES),IC50
1,"CC(C)Oc1ccc(-c2nn([C@@H](C)c3cc4scc(Cl)n4c(=O)c3-c3ccccc3)c3ncnc(N)c23)cc1F [Example 4, (S)-7-(1-(4-amino-3-(3-fluoro-4-isopropoxyphenyl)-1H-pyrazolo[3,4-d]pyrimidin-1-yl)ethyl)-3-chloro-6-phenyl-5H-thiazolo[3,2-a]pyridin-5-one]",1 nM
2,"Cc1csc2nc([C@H](C)n3nc(-c4ccc(OC(C)C)c(F)c4)c4c(N)ncnc43)c(-c3cccc(F)c3)c(=O)n12 [Example 7, (S)-7-(1-(4-amino-3-(3-fluoro-4-isopropoxyphenyl)-1H-pyrazolo[3,4-d]pyrimidin-1-yl)ethyl)-6-(3-fluorophenyl)-3-methyl-5H-thiazolo[3,2-a]pyrimidin-5-one]",4 nM
3,"COc1ccc(-c2nn([C@@H](C)c3cc4scc(C)n4c(=O)c3-c3ccccc3)c3ncnc(N)c23)cc1NS(C)(=O)=O [Example 6, (S)-N-(5-(4-amino-1-(1-(3-methyl-5-oxo-6-phenyl-5H-thiazolo[3,2-a]pyridin-7-yl)ethyl)-1H-pyrazolo[3,4-d]pyrimidin-3-yl)-2-methoxyphenyl)meth anesulfonamide]",1 nM

# Other lines, results leading:
row,IC50,Structure (SMILES)
1,26 nM,"Cc1csc2cc([C@H](C)n3nc(-c4ccc(OC5CC5)c(F)c4)c4c(N)ncnc43)c(-c3cccc(F)c3)c(=O)n12 [Example 16, (S)-7-(1-(4-amino-3-(4-cyclopropoxy-3-fluorophenyl)-1H-pyrazolo[3,4-d]pyrimidin-1-yl)ethyl)-6-(3-fluorophenyl) -3-methyl-5H-thiazolo[3,2-a]pyridin-5-one]"
2,1 nM,"Cc1csc2cc([C@H](C)n3nc(-c4ccc(OC(C)C)nc4)c4c(N)ncnc43)c(-c3ccccc3)c(=O)n12 [Example 18, (S)-7-(1-(4-amino-3-(6-isopropoxypyridin-3-yl)-1H-pyrazolo[3,4-d]pyrimidin-1-yl)ethyl)-3-methyl-6-phenyl-5H-thi azolo[3,2-a]pyridin-5-one]"
3,2 nM,"COc1ncc(-c2nn([C@@H](C)c3cc4scc(Cl)n4c(=O)c3-c3cccc(F)c3)c3ncnc(N)c23)cc1NS(C)(=O)=O [Example 79, (S)-N-(5-(4-amino-1-(1-(3-chloro-6-(3-fluorophenyl)-5-oxo-5H-thiazolo[3,2-a]pyridin-7-yl)ethyl)-1H-pyrazolo[3,4-d]pyrimidin-3-yl)-2-methoxypyridin-3-yl)methanesulfonamide]"
4,1 nM,"Cc1csc2cc([C@H](C)n3nc(-c4ccc(OC(C)C)nc4)c4c(N)ncnc43)c(-c3cccc(F)c3)c(=O)n12 [Example 19, (S)-7-(1-(4-amino-3-(6-isopropoxypyridin-3-yl)-1H-pyrazolo[3,4-d]pyrimidin-1-yl)ethyl)-6-(3-fluorophenyl)-3-methyl-5H-thiazolo[3,2-a]pyridin-5-one]"
5,40 nM,"COc1ccc(-c2nn([C@@H](C)c3cc4scc(Cl)n4c(=O)c3-c3ccccc3)c3ncnc(N)c23)cc1NS(C)(=O)=O [Example 44, (S)-N-(5-(4-amino-1-(1-(3-chloro-5-oxo-6-phenyl-5H-thiazolo[3,2-a]pyridin-7-yl)ethyl)-1H-pyrazolo[3,4-d]pyrimidin-3-yl)-2-methoxyphenyl)methanesul fonamide]"

# Same assay, conditions: inhibition of OCI-LY10 cells proliferation, 72 h incubation, MTS readout at 490 nm
row,Structure (SMILES),IC50
1,"CC(C)Oc1ncc(-c2nn([C@@H](C)c3cc4scc(Cl)n4c(=O)c3-c3ccccc3)c3ncnc(N)c23)cn1 [Example 90, (S)-7-(1-(4-amino-3-(2-isopropoxypyrimidin-5-yl)-1H-pyrazolo[3,4-d]pyrimidin-1-yl)ethyl)-3-chloro-6-phenyl-5H-thiazolo[3,2-α]pyridin-5-one]",7 nM
2,"CC(C)Oc1ncc(-c2nn([C@@H](C)c3cc4scc(Cl)n4c(=O)c3-c3ccccc3)c3ncnc(N)c23)cc1C#N [Example 98, (S)-5-(4-amino-1-(1-(3-chloro-5-oxo-6-phenyl-5H-thiazolo[3,2-α]pyridin-7-y 1)ethyl)-1H-pyrazolo[3,4-d]pyrimidin-3-yl)-2-isopropoxynicotinonitrile]",8 nM
3,"Cc1csc2cc([C@H](C)n3nc(-c4cnc(OC(C)C)nc4)c4c(N)ncnc43)c(-c3cccc(F)c3)c(=O)n12 [Example 89, (S)-7-(1-(4-amino-3-(2-isopropoxypyrimidin-5-yl)-1H-pyrazolo[3,4-d]pyrimidin-1-yl)ethyl)-6-(3-fluorophenyl)-3-methyl-5H-thiazolo[3,2-α]pyridin-5-one]",73 nM
4,"COc1ncc(-c2nn([C@@H](C)c3cc4scc(Cl)n4c(=O)c3-c3ccccc3)c3ncnc(N)c23)cc1NS(C)(=O)=O [Example 78, (S)-N-(5-(4-amino-1-(1-(3-chloro-5-oxo-6-phenyl-5H-thiazolo[3,2-α]pyridin-7-yl)ethyl)-1H-pyrazolo[3,4-d]pyrimidin-3-yl)-2-methoxypyridin-3-yl)metha nesulfonamide]",3 nM
5,"CC(C)Oc1ccc(-c2nn([C@@H](C)c3cc4scc(Cl)n4c(=O)c3-c3ccccc3)c3ncnc(N)c23)cc1C#N [Example 84, (S)-5-(4-amino-l-(1-(3-chloro-5-oxo-6-phenyl-5H-thiazolo[3,2-α]pyridin-7-yl)ethyl)-1H-pyrazolo[3,4-d]pyrimidin-3-yl)-2-isopropoxy benzonitrile]",1 nM
6,"COc1ncc(-c2nn([C@@H](C)c3cc4scc(C)n4c(=O)c3-c3cccc(F)c3)c3ncnc(N)c23)cn1 [Example 103, (S)-7-(1-(4-amino-3-(2-methoxypyrimidin-5-yl)-1H-pyrazolo[3,4-d]pyrimidin-1-yl)ethyl)-6-(3-fluorophenyl)-3-met hyl-5H-thiazolo[3,2-α]pyridin-5-one]",22 nM
7,"CC(C)Oc1ccc(-c2nn([C@@H](C)c3cc4scc(Cl)n4c(=O)c3-c3cccc(F)c3)c3ncnc(N)c23)cn1 [Example 87, (S)-7-(1-(4-amino-3-(6-isopropoxypyridin-3-yl)-1H-pyrazolo[3,4-d]pyrimidin-1-yl)ethyl)-3-chloro-6-(3-fluoropheny 1)-5H-thiazol[3,2-α]pyridin-5-one]",64 nM
8,"Cc1csc2cc([C@H](C)n3nc(-c4ccc(OC(C)C)c(C#N)c4)c4c(N)ncnc43)c(-c3ccccc3)c(=O)n12 [Example 82, (S)-5-(4-amino-1-(1-(3-methyl-5-oxo-6-phenyl-5H-thiazolo[3,2-α]pyridin-7-yl)ethyl)-1H-pyrazolo[3,4-d]pyrimidin-3-yl)-2-isopropoxybenzonitrile]",1 nM
9,"C[C@@H](c1cc2scc(Cl)n2c(=O)c1-c1ccccc1)n1nc(-c2ccc(OC(F)F)c(F)c2)c2c(N)ncnc21 [Example 67, (S)-7-(1-(4-amino-3-(4-(difluoromethoxy)-3-fluorophenyl)-1H-pyrazolo[3,4-d]pyrimidin-1-yl)ethyl)-3-chloro-6-ph enyl-5H-thiazolo[3,2-α]pyridin-5-one]",1 nM
10,"CC(C)Oc1ncc(-c2nn([C@@H](C)c3cc4scc(Cl)n4c(=O)c3-c3ccccc3)c3ncnc(N)c23)cc1F [Example 94, (S)-7-(1-(4-amino-3-(5-fluoro-6-isopropoxypyridin-3-yl)-1H-pyrazolo[3,4-d]pyrimidin-1-yl)ethyl)-3-chloro-6-phenyl-5H-thiazolo[3,2-α]pyridin-5-one]",30 nM
11,"Cc1csc2cc([C@H](C)n3nc(-c4ccc(OC5CC5)c(F)c4)c4c(N)ncnc43)c(-c3ccccc3)c(=O)n12 [Example 17, (S)-7-(1-(4-amino-3-(4-cyclopropoxy-3-fluoropheny1)-1H-pyrazolo[3,4-d]pyrimidin-1-yl)ethyl)-3-methyl-6-phenyl-5H-thiazolo[3,2-a]pyridin-5-one]",65 nM
12,"Cc1csc2nc([C@H](C)n3nc(-c4ccc(OC(C)C)nc4)c4c(N)ncnc43)c(-c3cccc(F)c3)c(=O)n12 [Example 102, (S)-7-(1-(4-amino-3-(6-isopropoxypyridin-3-yl)-1H-pyrazolo[3,4-d]pyrimidin-1-yl)ethyl)-6-(3-fluorophenyl)-3-methyl-5H-thiazolo[3,2-α]pyrimidin-5-one]",70 nM
13,"CC(C)Oc1ccc(-c2nn([C@@H](C)c3cc4scc(Cl)n4c(=O)c3-c3cccc(F)c3)c3ncnc(N)c23)cc1C#N [Example 85, (S)-5-(4-amino-1-(1-(3-chloro-6-(3-fluorophenyl)-5-oxo-5H-thiazolo[3,2-α]pyridin-7-yl)ethyl)-1H-pyrazolo[3,4-d]pyrimidin-3-yl)-2-isopropoxybenzonitrile]",8 nM
14,"Cc1csc2nc([C@H](C)n3nc(-c4cnc(OC(C)C)c(F)c4)c4c(N)ncnc43)c(-c3cccc(F)c3)c(=O)n12 [Example 105, (S)-7-(1-(4-amino-3-(5-fluoro-6-isopropoxypyridin-3-yl)-1H-pyrazolo[3,4-d]pyrimidin-1-yl)ethyl)-6-(3-fluorophenyl)-3-methyl-5H-thiazolo[3,2-α]pyrimidin-5-one]",70 nM
15,"Cc1csc2cc([C@H](C)n3nc(-c4cnc(OC(C)C)c(C#N)c4)c4c(N)ncnc43)c(-c3ccccc3)c(=O)n12 [Example 96, (S)-5-(4-amino-1-(1-(3-methyl-5-oxo-6-phenyl-5H-thiazolo[3,2-α]pyridin-7-yl)ethyl)-1H-pyrazolo[3,4-d]pyrimidin-3-yl)-2-isopropoxynicotinonitrile]",21 nM
